13 molecules from paper PMC6805867, “Amphiphilic Triazine Polymer Derivatives as Antibacterial And Anti-atopic Agents in Mice Model” (Scientific Reports, 2019) can be followed below.

Format in all cases: cell-based
Test [1] deals with Escherichia coli (KCTC 1682). The experiment in a line: Antimicrobial activity, broth microdilution MIC. The following applies: 2 × 10^6 CFU/mL in 1% peptone, 37 °C, 18–22 h, 100% inhibition of growth, performed three times. The protocol:
(§1) The bacterial strains employed in the experiment were Escherichia coli (KCTC 1682), Pseudomonas aeruginosa (KCTC 1637), Bacillus subtilis (KCTC 3068), Staphylococcus aureus (KCTC 1621), three methicillin-resistant Staphylococcus aureus (CCARM 3089, 3090 and 3095), two multidrug-resistant Pseudomonas aeruginosa (CCARM 2095 and 2109) and vancomycin-resistant Enterococcus faecium (ATCC 51559). The antimicrobial activities of polymers were determined by the broth microdilution method, and the procedures were used as previously reported. Briefly, bacteria grown to mid-logarithmic phase in LB broth were diluted to 2 × 10^6 CFU/mL in 1% peptone and added to serial two-fold dilutions of different polymers ranging from 1 to 64 μg/mL. The plates were incubated in a shaking incubator at 37 °C for 18–22 h. The minimum inhibitory concentration (MIC) was determined by confirming the absence of bacterial growth both visually and spectrophotometrically by OD600 readings taken by a microplate ELISA reader (Molecular Devices, Sunnyvale, CA, USA). All measurements were performed three times.
(Broth dilution looks for growth in wells or tubes with falling amounts of substance.)

The test system of test [2] is Staphylococcus aureus (KCTC 1621). The experiment in a line: Antimicrobial activity, broth microdilution MIC. The following applies: 2 × 10^6 CFU/mL in 1% peptone, 37 °C, 18–22 h, 100% inhibition of growth, performed three times. The protocol: as §1
The test system of test [3] is Pseudomonas aeruginosa (KCTC 1637). The test is described as follows: Antimicrobial activity, broth microdilution MIC. The conditions noted are these: 2 × 10^6 CFU/mL in 1% peptone, 37 °C, 18–22 h, 100% inhibition of growth, performed three times. Here is the method: as §1
Test [4] has as its system Bacillus subtilis (KCTC 3068). The test is described as follows: Antimicrobial activity, broth microdilution MIC. The conditions noted are these: 2 × 10^6 CFU/mL in 1% peptone, 37 °C, 18–22 h, 100% inhibition of growth, performed three times. Here is the method:
as §1

Test [5] has as its system selected bacterial strains. The test is described as follows: Geometric mean of MIC values over the bacterial strains. The conditions noted are these: geometric mean of MIC values from selected six bacterial strains (footnote b). The protocol:
as §1

Test [6] concerns Multidrug-resistant Pseudomonas aeruginosa (MDRPA) (CCARM 2095). The experiment in a line: Chequerboard assay (synergy with clinically used antibiotics). The following applies: for FICA (fractional inhibitory concentration of antibiotic): [A]/MICA; for MICA (MIC of antibiotic alone): MDRPA CCARM 2095, 37 °C, 22 h, unit printed only in b27, not in the table; for [A] (MIC of antibiotic in combination): MDRPA CCARM 2095, unit not given. Here is the method: Briefly, 2-fold serial dilutions of each antibiotic and each polymer were prepared and added in a 1:1 volume ratio to the wells of a 96-well plate. An equal volume of bacterial solution (100 μL) at ∼10^6 CFU/mL was then seeded into each well. The plates were incubated in a shaking incubator at 37 °C and 200 rpm and read after 22 h. Bacterial growth was assessed visually or spectrophotometrically via OD600 readings taken by a microplate ELISA reader (Molecular Devices, Sunnyvale, CA, USA). The fractional inhibitory concentration index (FICI) for each drug combination was calculated using the following equation: FICI = FICA + FICB = [A]/MICA + [B]/MICB, where MICA and MICB are the MIC of antibiotic and triazine based monomer (TZP3 or TZP5), respectively, while [A] and [B] are the MIC of antibiotic and triazine based monomer (TZP3 or TZP5) in combination, respectively. FICI of ≤ 0.5 was interpreted as synergy, 0.5 < FICI ≤ 1.0 as additive, 1.0 < FICI ≤ 4.0 as indifferent, and a FICI > 4.0 as antagonism.

SMILES strings stand for the structures.

For the molecule `NCCCN(CCCN)c1nc(Cl)nc(NCCNc2nc(NCCNc3nc(NCCNc4nc(N)nc(NCCC(c5ccccc5)c5ccccc5)n4)nc(N(CCCN)CCCN)n3)nc(NCCC(c3ccccc3)c3ccccc3)n2)n1` [TZP12], the “MIC Escherichia coli (KCTC 1682)” value in test [1] was 4 [2.9] μg/mL. For the same molecule, in test [2], the “MIC Staphylococcus aureus (KCTC 1621)” value is 4 [2.9] μg/mL. In test [3], the “MIC Pseudomonas aeruginosa (KCTC 1637)” value is 16 [11.5] μg/mL. For the same molecule, the “MIC Bacillus subtilis (KCTC 3068)” value in test [4] was 8 [5.8] μg/mL. For the same molecule, the “GM (geometric mean of MIC values)” value in test [5] was 8.0 [5.8] μg/mL.
Consider `NCCCN(CCCN)c1nc(N)nc(NCCNc2nc(NCCNc3nc(NCCNc4nc(NCCNc5nc(Cl)nc(N(CCCN)CCCN)n5)nc(N(CCCN)CCCN)n4)nc(N(CCCN)CCCN)n3)nc(N(CCCN)CCCN)n2)n1` [TZP13], for which the “MIC Escherichia coli (KCTC 1682)” value in test [1] was 8 [6.6] μg/mL. Also, the “MIC Staphylococcus aureus (KCTC 1621)” value in test [2] is 8 [6.6] μg/mL. Also, the “MIC Pseudomonas aeruginosa (KCTC 1637)” value in test [3] is 8 [6.6] μg/mL. Besides, in test [4], the “MIC Bacillus subtilis (KCTC 3068)” value was 4 [3.3] μg/mL. For the same molecule, the “GM (geometric mean of MIC values)” value in test [5] is 7.0 [5.7] μg/mL.
For the molecule `N=C(N)NCCCN(CCCNC(=N)N)c1nc(N)nc(NCCNc2nc(NCCNc3nc(Cl)nc(N(CCCNC(=N)N)CCCNC(=N)N)n3)nc(N(Cc3ccccc3)Cc3ccccc3)n2)n1` [TZP9], the “MIC Escherichia coli (KCTC 1682)” value in test [1] was 2 [1.9] μg/mL. In addition, the “MIC Staphylococcus aureus (KCTC 1621)” value in test [2] is 2 [1.9] μg/mL. Also, the “MIC Pseudomonas aeruginosa (KCTC 1637)” value in test [3] is 8 [7.8] μg/mL. In addition, the “MIC Bacillus subtilis (KCTC 3068)” value in test [4] is 2 [1.9] μg/mL. For the same molecule, the “GM (geometric mean of MIC values)” value in test [5] is 3.5 [3.4] μg/mL.
`NCCCN(CCCN)c1nc(N)nc(NCCNc2nc(NCCNc3nc(Cl)nc(N(CCCN)CCCN)n3)nc(N(CCCN)CCCN)n2)n1` [TZP7]: the “MIC Escherichia coli (KCTC 1682)” value in test [1] was 16 [20.2] μg/mL. Further, the “MIC Staphylococcus aureus (KCTC 1621)” value in test [2] was 16 [20.2] μg/mL. The “MIC Pseudomonas aeruginosa (KCTC 1637)” value in test [3] is 8 [10.1] μg/mL. Further, the “MIC Bacillus subtilis (KCTC 3068)” value in test [4] was 8 [10.1] μg/mL. In test [5], the “GM (geometric mean of MIC values)” value was 12.0 [15.2] μg/mL.
With `NCCCN(CCCN)c1nc(N)nc(NCCNc2nc(NCCNc3nc(Cl)nc(N(Cc4ccccc4)Cc4ccccc4)n3)nc(N(CCCN)CCCN)n2)n1` [TZP4], the “MIC Escherichia coli (KCTC 1682)” value in test [1] was 2 [2.3] μg/mL. In test [2], the “MIC Staphylococcus aureus (KCTC 1621)” value was 2 [2.3] μg/mL. Moreover, the “MIC Pseudomonas aeruginosa (KCTC 1637)” value in test [3] is 4 [4.7] μg/mL. In addition, the “MIC Bacillus subtilis (KCTC 3068)” value in test [4] is 2 [2.3] μg/mL. Also, in test [5], the “GM (geometric mean of MIC values)” value was 2.5 [2.9] μg/mL.
On to `NCCCN(CCCN)c1nc(N)nc(NCCNc2nc(Cl)nc(N(CCCN)CCCN)n2)n1` [TZP1], for which the “MIC Escherichia coli (KCTC 1682)” value in test [1] was 32 [60.8] μg/mL. For the same molecule, the “MIC Staphylococcus aureus (KCTC 1621)” value in test [2] was 32 [60.8] μg/mL. Besides, the “MIC Pseudomonas aeruginosa (KCTC 1637)” value in test [3] is 64 [121.7] μg/mL. For the same molecule, in test [4], the “MIC Bacillus subtilis (KCTC 3068)” value is 64 [121.7] μg/mL. The “GM (geometric mean of MIC values)” value in test [5] is 48.0 [91.3] μg/mL.
Regarding `N=C(N)NCCCN(CCCNC(=N)N)c1nc(Cl)nc(NCCNc2nc(NCCNc3nc(NCCNc4nc(N)nc(NCCC(c5ccccc5)c5ccccc5)n4)nc(N(CCCNC(=N)N)CCCNC(=N)N)n3)nc(NCCC(c3ccccc3)c3ccccc3)n2)n1` [TZP11], the “MIC Escherichia coli (KCTC 1682)” value in test [1] is 8 [9.2] μg/mL. The “MIC Staphylococcus aureus (KCTC 1621)” value in test [2] is 8 [9.2] μg/mL. The “MIC Pseudomonas aeruginosa (KCTC 1637)” value in test [3] was 16 [18.3] μg/mL. Moreover, in test [4], the “MIC Bacillus subtilis (KCTC 3068)” value was 8 [9.2] μg/mL. For the same molecule, in test [5], the “GM (geometric mean of MIC values)” value amounted to 10.0 µg/mL.
Regarding `N=C(N)NCCCN(CCCNC(=N)N)c1nc(Cl)nc(NCCNc2nc(NCCNc3nc(N)nc(N(CCCN)CCCN)n3)nc(N(Cc3ccccc3)Cc3ccccc3)n2)n1` [TZP6], the “MIC Escherichia coli (KCTC 1682)” value in test [1] was 2 [2.1] μg/mL. The “MIC Staphylococcus aureus (KCTC 1621)” value in test [2] was 2 [2.1] μg/mL. The “MIC Pseudomonas aeruginosa (KCTC 1637)” value in test [3] is 4 [4.2] μg/mL. The “MIC Bacillus subtilis (KCTC 3068)” value in test [4] was 2 [2.1] μg/mL. Besides, the “GM (geometric mean of MIC values)” value in test [5] was 2.5 [2.7] μg/mL.
Turning to `O=C(N[C@H](CO)[C@H](O)c1ccc([N+](=O)[O-])cc1)C(Cl)Cl` [Chloramphenicol, chloramphenicol, reference compound], the “FICA (fractional inhibitory concentration of antibiotic)” value in test [6] (in combination with TZP3) and in test [6] (in combination with TZP5) was 0.031 in each case. The “MICA (MIC of antibiotic alone)” value in test [6] was 512 µM; in test [6] (listed as chloramphenicol), 512−1024 μM. In addition, the “[A] (MIC of antibiotic in combination)” value in test [6] (in combination with TZP3) and in test [6] (in combination with TZP5) was 16 throughout.
With `N=C(N)NCCCN(CCCNC(=N)N)c1nc(Cl)nc(NCCNc2nc(NCCNc3nc(N)nc(NCCC(c4ccccc4)c4ccccc4)n3)nc(N(CCCNC(=N)N)CCCNC(=N)N)n2)n1` [TZP10], the “MIC Escherichia coli (KCTC 1682)” value in test [1] is 4 [3.8] μg/mL. Moreover, in test [2], the “MIC Staphylococcus aureus (KCTC 1621)” value was 4 [3.8] μg/mL. The “MIC Pseudomonas aeruginosa (KCTC 1637)” value in test [3] is 16 [15.4] μg/mL. In test [4], the “MIC Bacillus subtilis (KCTC 3068)” value is 4 [3.8] μg/mL. Further, the “GM (geometric mean of MIC values)” value in test [5] is 7.0 [6.7] μg/mL.
On to `N=C(N)NCCCN(CCCNC(=N)N)c1nc(N)nc(NCCNc2nc(Cl)nc(N(Cc3ccccc3)Cc3ccccc3)n2)n1` [TZP2], for which, in test [1], the “MIC Escherichia coli (KCTC 1682)” value is 2 [3] μg/mL. In addition, the “MIC Staphylococcus aureus (KCTC 1621)” value in test [2] is 2 [3] μg/mL. Further, the “MIC Pseudomonas aeruginosa (KCTC 1637)” value in test [3] is 8 [11.8] μg/mL. Besides, the “MIC Bacillus subtilis (KCTC 3068)” value in test [4] was 2 [3] μg/mL. In addition, the “GM (geometric mean of MIC values)” value in test [5] is 3.5 [5.2] μg/mL.
As to `Cc1onc(-c2ccccc2)c1C(=O)N[C@@H]1C(=O)N2[C@@H]1SC(C)(C)[C@@H]2C(=O)O` [Oxacillin, oxacillin, reference compound], the “FICA (fractional inhibitory concentration of antibiotic)” value in test [6] (in combination with TZP3) and in test [6] (in combination with TZP5) was 1.0 each time. The “MICA (MIC of antibiotic alone)” value was 1024 µM in test [6] and 512−1024 μM in test [6] (listed as oxacillin). The “[A] (MIC of antibiotic in combination)” value in test [6] (in combination with TZP3) and in test [6] (in combination with TZP5) was 1024 each time.
For `NCCCN(CCCN)c1nc(NCCNc2nc(N)nc(N(Cc3ccccc3)Cc3ccccc3)n2)nc(NCCNc2nc(Cl)nc(N(Cc3ccccc3)Cc3ccccc3)n2)n1` [TZP8], the “MIC Escherichia coli (KCTC 1682)” value in test [1] is 8 [8.7] μg/mL. Further, in test [2], the “MIC Staphylococcus aureus (KCTC 1621)” value was 8 [8.7] μg/mL. Moreover, the “MIC Pseudomonas aeruginosa (KCTC 1637)” value in test [3] is >64 [>69.3] μg/mL. Moreover, the “MIC Bacillus subtilis (KCTC 3068)” value in test [4] is 8 [8.7] μg/mL. In addition, the “GM (geometric mean of MIC values)” value in test [5] was 38.0 [41.1] μg/mL.
